These results are taken from article PMC7940618, “Specific inhibition of the Survivin–CRM1 interaction by peptide-modified molecular tweezers” (Nature Communications, 2021).

Each structure is given as a SMILES string. Where “and” joins values, the source holds several entries; their conditions need not be identical. Equal values may be shown once. Peptide text beside a SMILES is read from it.

The target in experiment [1] is T1, Survivin120/CRM1_1-1062VLV430AAA complex (Homo sapiens, UniProt O15392).
T1 construct: the only published NMR structure originated from a truncated Survivin (aa 1-120) with improved solubility; GST with PreScission site (N); made in house; host or cells: E. coli BL21-CodonPlus-RIL (CRM1 mutant); E. coli soluBL21 (Survivin120)
Nature of the experiment: Fluorescence anisotropy titration of Atto488-Survivin120/CRM1 complex with tweezers. Particulars: for Anisotropy: Data 1; for IC50: fluorescence anisotropy, Atto488-Survivin120:CRM1 mutant 1:5, n = 1, read-out: IC50, disruption of Survivin–CRM1 complex. Format: binding. The method, then: We also used fluorescence anisotropy experiments to investigate the ability of the tweezer molecules to disrupt the Survivin–CRM1 complex. Atto488-labeled Survivin120 was preincubated with the CRM1_1-1062VLV430AAA mutant[40] that binds Survivin irrespective of RanGTP and titrated with tweezers.
Fluorescence anisotropy was measured with a Jasco Spectrofluorometer FP-8300 in PBS buffer, pH 7.4, at 25 °C and data were collected with the software Spectra Manager™.
For the quantitative analysis of the Survivin120/CRM1 complex, Survivin120 was labeled with ATTO488-maleimide from Jenabioscience according to the manufacturer’s instructions and mixed with CRM1_1-1062VLV430AAA in a ratio of 1:5. The protein complex was then titrated with tweezers in several steps until a final concentration of approximately 180 μM tweezers was reached. Data were transformed to logarithmic scale and IC50 was fitted using the equation in GraphPad Prism 8:2 y=Amin+Amax−Amin/1+10^x−logIC50 where Amax is the anisotropy in the absence of tweezer, Amin is the anisotropy at the end titration, and x is the concentration of tweezer. Amax was constrained for each data set, whereas Amin and IC50 were fitted.

Experiment [2] concerns the target T2, GST-Survivin120-K90/103T–CRM1 interaction (Homo sapiens, UniProt O15392, K103T/K90T).
T2 construct: the only published NMR structure originated from a truncated Survivin (aa 1-120) with improved solubility; made in house; host or cells: Escherichia coli soluBL21
Nature of the experiment: Pull-down with GST-Survivin120-K90/103T bait, CRM1 and RanQ69L. The class given is binding. Particulars: for CRM1: Peak area determined with ImageJ / CRM1 intensity_normalised on GST-Surv intensity (samples 1-14) / CRM1: Control w/o GST-Survivin subtracted (sample 16 or 23): CRM1 band; for CRM1: Peak area determined with ImageJ / CRM1 intensity_normalised on GST-Surv intensity (samples 1-14) / CRM1: Control w/o GST-Survivin subtracted (sample 16 or 23) / CRM1 intensity_normalised on GST-Surv intensity (samples 1-14) and CRM1 intensity w/o incubation (sample 15 or 22): samples 22-28 (K90/103T); for CRM1: Control w/o GST-Survivin subtracted (sample 16 or 23): sample 23 subtracted; for GST-Surv: Peak area determined with ImageJ / GST-Surv: Control w/o GST-Survivin subtracted (sample 2 or 9): GST-Surv bait band; for GST-Surv: Peak area determined with ImageJ: samples 8-14 (K90/103T according to the summary in r39-r41); for GST-Surv: Control w/o GST-Survivin subtracted (sample 2 or 9): samples 8-14 (K90/103T), sample 9 subtracted; for Normalised CRM1 intensity, summary of replicates I and II: K90/103T, w/o tweezer = 100, replicates I and II. Here is the method:
Next, we investigated whether tweezer inhibition of the export complex assembly is compromised upon lysine mutations near the NES. Therefore, pull-down experiments were performed with recombinant GST-tagged Survivin120 wildtype and K90/103T as bait proteins, tweezers, recombinant CRM1 and RanQ69L (Fig. 7g). Controls lacking the Survivin baits were included, as well as isolated peptides without tweezer (Fig. 7h). […] However, for the double lysine mutant GST-Survivin120-K90/103T even the tweezer conjugates lost most of their inhibitory power toward the essential Survivin–CRM1 interaction.
All pull-down assays were performed at room temperature in pull-down buffer (PBS, pH 7.4, 1 mM DTT, 0.02 Triton X-100). GST fusion proteins were immobilized on 50 μL GSH-coated Sepharose 4B beads from GE Healthcare. The beads were prior equilibrated and blocked with 500 μL pull-down blocking buffer (PBS, pH 7.4, 1 (w/v) BSA, 1 mM DTT, 0.02 (v/v) Triton X-100) for 1 h to prevent unspecific binding.
For analysis of the effective inhibitory tweezer concentration, 200 μg 293T lysate with overexpressed Survivin142-HA was preincubated without ligand or with different concentrations (10 nM to 200 μM) of unmodified tweezer TW, TW-ELTL, TW-ELTLGEFL, or TW-LFEEGLLT for 1 h and then mixed with 35 μg GST-CRM1, 55 μg RanQ69L, and 2 mM dGTP. GSH-beads were incubated with this protein mixture for 2 h under rotation. For analysis of tweezer specificity, 40 μg GST-Survivin120 or GST-Survivin120-K90/103T point mutant was pre-bound to equilibrated GSH-beads in 500 μL pull-down buffer, containing additionally either no ligand or 50 μM unmodified tweezer TW, TW-ELTL, TW-ELTLGEFL, or peptides ELTL and ELTLGEFL, for 1 h under rotation. After washing and blocking, GSH-beads were incubated with a protein mixture consisting of 2 mM dGTP, 50 μg CRM1, and 50 μg RanQ69L for 2 h under rotation.
Samples of input and beads taken during pull-down experiments were ran on 12.5 SDS gels and transferred onto 0.2 µM PVDF membranes (Amersham Hybond P 0.2) using a PerfectBlue™ tank electro blotter (Peqlab) at 350 mA for 150 min. Membranes were blocked for 1 h using 5% milk powder in TBS buffer containing 0.1% Tween-20. Next, membranes were incubated in primary antibodies against HA (anti-HA, mouse monoclonal, BioLegend, Covance MMS-101R, 1:1,000), GST (anti-GST, mouse monoclonal, Santa Cruz Biotechnology Inc., sc-57753, 1:1000) or CRM1 (anti-CRM1, rabbit polyclonal, Novus Biologicals Ltd., NB100-79802, 1:10,000) overnight at 4 °C. Secondary horseradish peroxidase (HRP)-conjugated antibody (anti-mouse IgG-HRP, sheep, GE Healthcare, NXA931 or anti-rabbit IgG-HRP, donkey, GE Healthcare, NA934) was then added (1:10,000) for 1 h at room temperature. Chemiluminescence was detected and imaged using the Pierce ECL Plus Western Blotting Substrate kit (Thermo Fisher Scientific) and Chemidoc system (Bio-Rad) or film processor Cawomat 2000 IR (CAWO). Western blots were analyzed by densitometric analysis with ImageJ version 1.52p (U.S. National Institutes of Health), measuring the mean gray intensity of protein bands. Uncropped and unprocessed scans of western blots are deposited in the Source Data file.

Setting [3] is: Concentration of Tweezer 8.26446.
[4] abbreviates: Concentration of Tweezer 16.39344.
Where [5] appears, read: Concentration of Tweezer 24.39024.
Setting [6] is: Concentration of Tweezer 32.25806.
Where [7] appears, read: Concentration of Tweezer 40.00000.
Where [8] appears, read: Concentration of Tweezer 55.11811.
Where [9] appears, read: Concentration of Tweezer 83.96947.
Setting [10] is: Concentration of Tweezer 136.69060.
Setting [11] is: Concentration of Tweezer 183.67350.
Setting [12] is: fraction of sample 22 (w/o tweezer).

T1 sequence (O15392 1-120, one chain of several): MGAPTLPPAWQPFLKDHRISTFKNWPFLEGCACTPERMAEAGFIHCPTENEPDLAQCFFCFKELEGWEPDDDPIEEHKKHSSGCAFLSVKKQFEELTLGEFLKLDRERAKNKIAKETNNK
T2 sequence (O15392 1-120 K90T/K103T): as the sequence (O15392 1-120, one chain of several) above, with K90T, K103T counted along it

As usually defined, the IC50 is the point on the concentration scale where inhibition reaches its midpoint. Consider `O=P(O)(O)Oc1c2c(c(OP(=O)(O)O)c3c1C1CC3c3cc4c(cc31)C1CC4c3ccccc31)C1CC2c2cc3c(cc21)C1CC3c2ccccc21` [TW, reference compound], for which the Anisotropy in experiment [1] (setting [3]) is recorded as 0.0578; in experiment [1] (setting [4]), 0.0573; in experiment [1] (setting [5]), 0.0568; in experiment [1] (setting [6]), 0.0561; in experiment [1] (setting [7]), 0.0556; in experiment [1] (setting [8]) it was 0.0551. Further, the Anisotropy in experiment [1] (setting [9]) was determined as 0.0525; in experiment [1] (setting [10]), 0.0507; in experiment [1] (setting [11]), 0.0512; in experiment [1] (Concentration of Tweezer 225.80650), 0.0517. Also, the IC50 in experiment [1] was 53 µM and 53.4 µM. For the same compound, the “CRM1: Peak area determined with ImageJ” value in experiment [2] was 39038.4. Also, in experiment [2], the “CRM1 intensity_normalised on GST-Surv intensity (samples 1-14)” value stood at 0.5728. In addition, the “CRM1: Control w/o GST-Survivin subtracted (sample 16 or 23)” value in experiment [2] is listed as 34329.1. Further, the “GST-Surv: Peak area determined with ImageJ” value in experiment [2] is on record as 62533.1. For the same compound, the “GST-Surv: Control w/o GST-Survivin subtracted (sample 2 or 9)” value in experiment [2] turned out to be 59934. Moreover, in experiment [2], the “Normalised CRM1 intensity, summary of replicates I and II” value (“Normalised CRM1 intensity, summary” for short) was 90.4067%. Moreover, the “CRM1 intensity_normalised on GST-Surv intensity (samples 1-14) and CRM1 intensity w/o incubation (sample 15 or 22)” value (“CRM1 intensity_normalised … (sample 15 or 22)” for short) in experiment [2] (setting [12]) is 0.9041; in experiment [2] (w/o tweezer = 100), 90.4067%.

For the compound `CC(C)C[C@H](NC(=O)[C@H](Cc1ccccc1)NC(=O)[C@H](CCC(=O)O)NC(=O)CNC(=O)[C@H](CC(C)C)NC(=O)[C@@H](NC(=O)[C@H](CC(C)C)NC(=O)[C@H](CCC(=O)O)NC(=O)Cn1cc(CCOP(=O)(O)Oc2c3c(c(OP(=O)(O)O)c4c2C2CC4c4cc5c(cc42)C2CC5c4ccccc42)C2CC3c3cc4c(cc32)C2CC4c3ccccc32)nn1)[C@@H](C)O)C(=O)O` [TW-ELTLGEFL] (HELM PEPTIDE1{[O=C(Cn1cc(CCOP(=O)(O)Oc2c3c(c(OP(=O)(O)O)c4c2C2CC4c4cc5c(cc42)C2CC5c4ccccc42)C2CC3c3cc4c(cc32)C2CC4c3ccccc32)nn1)[*:2]].E.L.T.L.G.E.F.L}$$$$V2.0), the IC50 in experiment [1] was 12 µM and 11.6 µM. For the same compound, the “Normalised CRM1 intensity, summary” value in experiment [2] was 109.825% and 111.087%. In addition, the “CRM1 intensity_normalised … (sample 15 or 22)” value in experiment [2] (w/o tweezer = 100) was 109.825%.

`CC(C)C[C@H](NC(=O)[C@@H](NC(=O)[C@H](CC(C)C)NC(=O)[C@H](CCC(=O)O)NC(=O)Cn1cc(CCOP(=O)(O)Oc2c3c(c(OP(=O)(O)O)c4c2[C@H]2C[C@@H]4c4cc5c(cc42)[C@H]2C[C@@H]5c4ccccc42)[C@H]2C[C@@H]3c3cc4c(cc32)[C@H]2C[C@@H]4c3ccccc32)nn1)[C@@H](C)O)C(=O)O` [TW-ELTL]: the Anisotropy was determined as 0.0572 in experiment [1] (setting [3]); 0.0560 in experiment [1] (setting [4]); 0.0559 in experiment [1] (setting [5]); 0.0551 in experiment [1] (setting [6]); 0.0548 in experiment [1] (setting [7]); 0.0528 in experiment [1] (setting [8]). Further, the Anisotropy in experiment [1] (setting [9]) came out at 0.0510; in experiment [1] (setting [10]), 0.0501; in experiment [1] (setting [11]) it was 0.0506. Moreover, the IC50 in experiment [1] stood at 39 µM. Besides, the “CRM1: Peak area determined with ImageJ” value in experiment [2] is given as 11197.5. Moreover, in experiment [2], the “CRM1 intensity_normalised on GST-Surv intensity (samples 1-14)” value is listed as 0.3807. The “CRM1: Control w/o GST-Survivin subtracted (sample 16 or 23)” value in experiment [2] is reported as 6488.31. Further, the “GST-Surv: Peak area determined with ImageJ” value in experiment [2] turned out to be 19643.8. In addition, the “GST-Surv: Control w/o GST-Survivin subtracted (sample 2 or 9)” value in experiment [2] amounted to 17044.7. Besides, in experiment [2], the “Normalised CRM1 intensity, summary” value was determined as 60.0833%. Besides, the “CRM1 intensity_normalised … (sample 15 or 22)” value is on record as 0.6008 in experiment [2] (setting [12]) and 60.0833% in experiment [2] (w/o tweezer = 100).
